Reference: patent publication US20150030642A1, “POLYMER MICRO-NEEDLE ARRAY CHIP, PREPARATION PROCESS AND USE THEREOF” (Technical Institute of Physics and Chemistry of the Chinese …, priority 2012, published 2015)

Legend:
[1] = Journal of Pharmaceutical Sciences, 1998, 87, 922-925; cited from earlier work
[2] = test system: pigskin used for simulated human skin
Description: Freezing pigskin used for simulated human skin was thawed; sites of pesticide application were cleaned and disinfected after thawed;

Compound | transdermal permeability speed, micro-needle versus traditional transdermal drug delivery [1] | penetration of skin [2]
O=C(O)CN(CC(=O)O)Cc1cc2c(cc1O)Oc1cc(O)c(CN(CC(=O)O)CC(=O)O)cc1C21OC(=O)c2ccccc21 [calcein] | increased by four orders of magnitude | –
bovine serum albumin | – | could penetrate the skin
